Test results published in patent US20180078516A1 (InnovaZone Labs LLC, priority 2016, published 2018).

How the values were obtained:
clinical = settings: human, in vivo, po, 400 mg
[1] = cited from earlier work
[2] = cited from earlier work; remark: listed apart in the source

Q: For `CC(C)Cc1ccc(C(C)C(=O)O)cc1` (racemic) [ibuprofen sodium dihydrate, (R,S)-2-(4-isobutylphenyl) propionate sodium], which Tmax (clinical) is on record?
A: ~35 min

Q: What does the source list for `CC(C)Cc1ccc(C(C)C(=O)O)cc1` (racemic) [Ibuprofen, (R,S)-2-(4-isobutylphenyl) propionic acid]?
A: solubility in water [1]: practically insoluble; onset of therapeutic effects after oral administration [2]: between 45 minutes and one hour
